Here are results for 23 molecules from patent publication US12358915B2, “METTL3 inhibitory compounds” (STORM THERAPEUTICS LTD., priority 2019, dated 2025).

What is called IC50 is the concentration that gives 50% inhibition.

Each structure is given as a SMILES string.

The experiment addresses T1, METTL3/14 (Homo sapiens, UniProt Q86U44).
T1 construct: The enzyme used was full-length his-tagged METTL3; His; made in house
In words: METTL3/14 methyltransferase assay (METTL3_14 RFMS, RapidFire mass spectrometry).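 Further: recombinant His-tagged METTL3 with FLAG-tagged METTL14 from baculovirus, SAH product quantified by mass spectrometry against isotope-labelled internal standards, 60 min at room temperature, scaled between no-RNA and DMSO-only wells.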 The format is biochemical. To be noted: 5 nM METTL3/14, 0.2 μM RNA substrate, 0.5 μM SAM; lower limit of the assay IC50=5 nM; Compounds 63-265; read-out: METTL3_14 RFMS IC50.

T1 sequence (Q86U44 whole entry): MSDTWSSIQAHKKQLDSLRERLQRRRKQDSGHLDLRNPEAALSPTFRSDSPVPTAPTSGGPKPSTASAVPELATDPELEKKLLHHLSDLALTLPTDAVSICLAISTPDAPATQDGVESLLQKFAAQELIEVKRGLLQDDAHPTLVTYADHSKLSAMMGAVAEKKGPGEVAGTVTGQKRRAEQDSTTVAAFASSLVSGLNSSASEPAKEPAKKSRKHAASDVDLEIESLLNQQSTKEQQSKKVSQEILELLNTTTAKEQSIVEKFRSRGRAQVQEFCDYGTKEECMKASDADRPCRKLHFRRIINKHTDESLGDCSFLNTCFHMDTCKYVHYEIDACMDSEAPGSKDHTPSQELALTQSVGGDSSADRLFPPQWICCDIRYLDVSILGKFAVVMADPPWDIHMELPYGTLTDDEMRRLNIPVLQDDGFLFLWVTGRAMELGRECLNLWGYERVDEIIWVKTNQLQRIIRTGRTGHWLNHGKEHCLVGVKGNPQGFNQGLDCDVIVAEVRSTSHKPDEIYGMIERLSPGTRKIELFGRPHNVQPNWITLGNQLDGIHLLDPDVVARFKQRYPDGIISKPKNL
T1 sequence (Q9HCE5 whole entry partner): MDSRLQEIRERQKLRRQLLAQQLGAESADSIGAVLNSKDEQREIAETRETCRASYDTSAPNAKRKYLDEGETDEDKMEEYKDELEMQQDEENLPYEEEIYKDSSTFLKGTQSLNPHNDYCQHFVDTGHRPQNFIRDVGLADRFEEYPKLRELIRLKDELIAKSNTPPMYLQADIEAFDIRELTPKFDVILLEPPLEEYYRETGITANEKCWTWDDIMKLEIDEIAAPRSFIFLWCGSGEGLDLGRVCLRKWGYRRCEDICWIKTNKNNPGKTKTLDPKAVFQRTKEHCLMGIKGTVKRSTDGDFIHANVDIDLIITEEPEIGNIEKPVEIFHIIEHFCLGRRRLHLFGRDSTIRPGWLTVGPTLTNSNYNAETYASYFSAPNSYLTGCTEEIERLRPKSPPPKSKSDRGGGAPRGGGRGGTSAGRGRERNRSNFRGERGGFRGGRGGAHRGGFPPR
Protocol: The enzyme used was full-length his-tagged METTL3 co-expressed with full length FLAG-tagged METTL14 in a baculovirus expression system. […] After termination, plates were sealed, centrifuged and stored at 4° C. until analysis. […] Mass Spectrometry Analysis RNA methyltransferase activity was measured label free using the RapidFireTM mass spectrometry (RF/MS) platform. Stopped and stable assay plates were analyzed on the Agilent RF300 integrated autosampler/solid-phase extraction (SPE) system coupled to an ABSciex 4000 mass spectrometer for the generation of the product S-adenosyl homocysteine (SAH) and normalized to the ratio of signal of the two internal product standards, respectively. Solvent A was water containing 0.1% (v/v) TCA. Solvent B was acetonitrile/0.1% ammonium acetate (8:2, v/v). More specifically, plates were centrifuged at 4350 rpm for 10 min, samples were aspirated under vacuum for 600 ms, then loaded onto a C18 solid-phase extraction cartridge and washed for 3 s with solvent A at a flow rate of 1.5 mL/min. Retained product and internal standards were eluted with solvent B at a flow rate of 1 mL/min for 3 s and finally the cartridge was reequilibrated with solvent A for 500 ms.

For `CC(C)CNCc1ccc2nc(CNC(=O)c3cc(=O)n4ccccc4n3)cn2c1` [Compound 151, N-[(6-{[(2-methylpropyl)amino]methyl}imidazo[1,2-a]pyridin-2-yl)methyl]-4-oxo-4H-pyrido[1,2-a] pyrimidine-2-carboxamide], the IC50 worked out at 16.3 nM.

In the case of `CC(C)(C)OCCNCc1ccc2nc(CNC(=O)c3cc(=O)n4ccccc4n3)cn2c1` [Compound 152, N-{[6-({[2-(tert-butoxy)ethyl]amino}methyl)imidazo[1,2-a]pyridin-2-yl]methyl}-4-oxo-4H-pyrido[1,2-a] pyrimidine-2-carboxamide], the half-maximal inhibitory concentration (IC50) was 104 nM.

As to `O=C(NCc1cn2cc(CNc3ccc(Cl)cc3)ccc2n1)c1cc(=O)n2ccccc2n1` [Compound 153, N-[(6-{[(4-chlorophenyl)amino]methyl}imidazo[1,2-a]pyridin-2-yl)methyl]-4-oxo-4H-pyrido[1,2-a] pyrimidine-2-carboxamide], the IC50 turned out to be 1580 nM.

Turning to `O=C(NCc1cn2cc(CNCCC3CCCCO3)ccc2n1)c1cc(=O)n2ccccc2n1` (centres unmarked) [Compound 154, N-{[6-({[2-(oxan-2-yl)ethyl]amino}methyl)imidazo [1,2-a]pyridin-2-yl]methyl}-4-oxo-4H-pyrido[1,2-a] pyrimidine-2-carboxamide], the IC50 was found to be 1180 nM.

Turning to `O=C(NCc1cn2cc(CN3CCC(Cc4ccccc4)CC3)ccc2n1)c1cc(=O)n2ccccc2n1` [Compound 155, N-({6-[(4-benzylpiperidin-1-yl)methyl]imidazo[1,2-a]pyridin-2-yl}methyl)-4-oxo-4H-pyrido [1,2-a]pyrimidine-2-carboxamide], the IC50 worked out at 177 nM.

Consider `O=C(NCc1cn2cc(CN3CCC(Oc4ccccc4)CC3)ccc2n1)c1cc(=O)n2ccccc2n1` [Compound 156, 4-oxo-N-({6-[(4-phenoxypiperidin-1-yl)methyl]imidazo[1,2-a]pyridin-2-yl}methyl)-4H-pyrido[1,2-a] pyrimidine-2-carboxamide], for which the IC50 came out at 61.7 nM.

Turning to `O=C(NCc1cn2cc(CNCC3CC3(F)F)ccc2n1)c1cc(=O)n2ccccc2n1` (centres unmarked) [Compound 157, N-{[6-({[(2,2-difluoro-cyclopropyl)methyl]amino}methyl)imidazo [1,2-a]pyridin-2-yl]methyl}-4-oxo-4H-pyrido [1,2-a]pyrimidine-2-carboxamide], the half-maximal inhibitory concentration (IC50) was 42.9 nM.

For the molecule `O=C(NCc1cn2cc(CNc3cccc(Cl)c3)ccc2n1)c1cc(=O)n2ccccc2n1` [Compound 158, N-[(6-{[(3-chlorophenyl)amino]methyl}imidazo[1,2-a]pyridin-2-yl)methyl]-4-oxo-4H-pyrido[1,2-a]pyrimidine-2-carboxamide], the IC50 is 3810 nM.

For `CC1(C)CC1CNCc1ccc2nc(CNC(=O)c3cc(=O)n4ccccc4n3)cn2c1` (centres unmarked) [Compound 159, N-{[6-({[(2,2-dimethyl-cyclopropyl)methyl]amino}methyl)imidazo [1,2-a]pyridin-2-yl]methyl}-4-oxo-4H-pyrido [1,2-a]pyrimidine-2-carboxamide], the IC50 amounted to 19.5 nM.

As for `CC1(CNCc2ccc3nc(CNC(=O)c4cc(=O)n5ccccc5n4)cn3c2)CCCO1` (centres unmarked) [Compound 160, N-{[6-({[(2-methyloxolan-2-yl)methyl]amino}methyl)imidazo [1,2-a]pyridin-2-yl]methyl}-4-oxo-4H-pyrido [1,2-a]pyrimidine-2-carboxamide], the IC50 came to 93.2 nM.

In the case of `CC(C)(C)C1CCN(Cc2ccc3nc(CNC(=O)c4cc(=O)n5ccccc5n4)cn3c2)CC1` [Compound 161, N-({6-[(4-tert-butylpiperidin-1-yl)methyl]imidazo[1,2-a]pyridin-2-yl}methyl)-4-oxo-4H-pyrido[1,2-a]pyrimidine-2-carboxamide], the half-inhibitory concentration (IC50) is 99.1 nM.

Regarding `CC(C)(C)C1CCC(NCc2ccc3nc(CNC(=O)c4cc(=O)n5ccccc5n4)cn3c2)CC1` (centres unmarked) [Compound 162, N-[(6-{[(4-tert-butylcyclohexyl)amino]methyl}imidazo[1,2-a]pyridin-2-yl)methyl]-4-oxo-4H-pyrido[1,2-a] pyrimidine-2-carboxamide], the IC50 came out at 225 nM.

Consider `O=C(NCc1cn2cc(CNCCC3CCCC3)ccc2n1)c1cc(=O)n2ccccc2n1` [Compound 163, N-[(6-{[(2-cyclopentylethyl)amino]methyl}imidazo[1,2-a]pyridin-2-yl)methyl]-4-oxo-4H-pyrido[1,2-a]pyrimidine-2-carboxamide], for which the IC50 came to 80.1 nM.

On to `CC(C)(C)C(=O)N1CCN(Cc2ccc3nc(CNC(=O)c4cc(=O)n5ccccc5n4)cn3c2)CC1` [Compound 166, N-[(6-{[4-(2,2-dimethylpropanoyl)piperazin-1-yl]methyl}imidazo[1,2-a]pyridin-2-yl)methyl]-4-oxo-4H-pyrido [1,2-a]pyrimidine-2-carboxamide], for which the half-maximal inhibitory concentration (IC50) worked out at 10500 nM.

Turning to `CC(=O)N1CCN(Cc2ccc3nc(CNC(=O)c4cc(=O)n5ccccc5n4)cn3c2)CC1` [Compound 167, N-({6-[(4-acetylpiperazin-1-yl)methyl]imidazo[1,2-a]pyridin-2-yl}methyl)-4-oxo-4H-pyrido[1,2-a]pyrimidine-2-carboxamide], the IC50 was determined as 8070 nM.

Turning to `O=C(NCc1cn2cc(CNC(CO)C3CCCCC3)ccc2n1)c1cc(=O)n2ccccc2n1` (centres unmarked) [Compound 168, N-[(6-{[(1-cyclohexyl-2-hydroxyethyl)amino]methyl}imidazo[1,2-a]pyridin-2-yl)methyl]-4-oxo-4H-pyrido[1,2-a]pyrimidine-2-carboxamide], the IC50 amounted to 114 nM.

`O=C(NCc1cn2cc(CN3C4CCC3CC4)ccc2n1)c1cc(=O)n2ccccc2n1` [Compound 169, N-{[6-({7-azabicyclo [2.2.1]heptan-7-yl}methyl)imidazo[1,2-a]pyridin-2-yl]methyl}-4-oxo-4H-pyrido[1,2-a]pyrimidine-2-carboxamide]: the IC50 came to 391 nM.

As to `O=C(NCc1cn2cc(CNCC3CCCCC3)ccc2n1)c1cc(=O)c2ccccc2o1` [Compound 170, N-[(6-{[(cyclohexylmethyl)amino]methyl}imidazo[1,2-a]pyridin-2-yl)methyl]-4-oxo-4H-chromene-2-carboxamide], the IC50 turned out to be 29.4 nM.

Take `O=C(NCc1cn2cc(CNCC3CCCCC3)ccc2n1)c1cc(=O)c2ccc(Cl)cc2o1` [Compound 171, 7-chloro-N-[(6-{[(cyclohexylmethyl)amino]methyl}imidazo[1,2-a]pyridin-2-yl)methyl]-4-oxo-4H-chromene-2-carboxamide]: the IC50 was 293 nM.

Consider `O=C(NCc1cn2cc(CNCC3CCCCC3)ccc2n1)c1cc(=O)c2cc(Cl)ccc2o1` [Compound 172, 6-chloro-N-[(6-{[(cyclohexylmethyl)amino]methyl}imidazo[1,2-a]pyridin-2-yl)methyl]-4-oxo-4H-chromene-2-carboxamide], for which the IC50 stood at 309 nM.

Regarding `O=C(NCc1cn2cc(CNCC3CCCCC3)ccc2n1)c1cc(=O)n2c(n1)CCCC2` [Compound 175, N-[(6-{[(cyclohexylmethyl)amino]methyl}imidazo[1,2-a]pyridin-2-yl)methyl]-4-oxo-4H,6H,7H,8H, 9H-pyrido[1,2-a]pyrimidine-2-carboxamide], the half-maximal inhibitory concentration (IC50) is 214 nM.

`Nc1ccc(C(=O)NCc2cn3cc(CNCC4CCCCC4)ccc3n2)cn1` [Compound 176, 6-amino-N-[(6-{[(cyclohexylmethyl)amino]methyl}imidazo[1,2-a]pyridin-2-yl)methyl] pyridine-3-carboxamide]: the IC50 was determined as 909 nM.

For the molecule `O=C(NCc1cn2cc(COCc3ccccc3)ccc2n1)c1cc(=O)n2ccccc2n1` [Compound 177], the concentration for half-maximal inhibition (IC50) came out at 1890 nM.
